These are literature values, as cited in patent US20180344745A1, “TREATMENT OF DEVELOPMENTAL DISORDERS WITH IMIDAZOLONE DERIVATIVES” (Ovid Therapeutics Inc., priority 2017, published 2018).

The conditions of this series: smokers versus non-smokers.

Consider `O=C1N=C(N2CCOCC2)CN1c1ccc(Cl)cc1` [imepitoin, 1-(4-chlorophenyl)-4-morpholino-imidazolin-2-one], for which the elimination result is given as “more rapidly eliminated in smokers than in non-smokers”.
